What was measured:
[1] = target: AHR^b isoform (C57BL/6J hepatic cytosol) (Mus musculus, UniProt P30561); settings: read-out: IC50, competitive binding; C57BL/6J cytosol, 1 nM radioligand 125IBr2N3DpD
murine AHR^d = target: T1, murine AHR^d (Mus musculus, UniProt P30561, A375V); test: EROD activity in AHR^d-15 cells (rat hepatoma BP8 stably transfected with AHR^d)
T1 sequence (P30561 10-848 A375V): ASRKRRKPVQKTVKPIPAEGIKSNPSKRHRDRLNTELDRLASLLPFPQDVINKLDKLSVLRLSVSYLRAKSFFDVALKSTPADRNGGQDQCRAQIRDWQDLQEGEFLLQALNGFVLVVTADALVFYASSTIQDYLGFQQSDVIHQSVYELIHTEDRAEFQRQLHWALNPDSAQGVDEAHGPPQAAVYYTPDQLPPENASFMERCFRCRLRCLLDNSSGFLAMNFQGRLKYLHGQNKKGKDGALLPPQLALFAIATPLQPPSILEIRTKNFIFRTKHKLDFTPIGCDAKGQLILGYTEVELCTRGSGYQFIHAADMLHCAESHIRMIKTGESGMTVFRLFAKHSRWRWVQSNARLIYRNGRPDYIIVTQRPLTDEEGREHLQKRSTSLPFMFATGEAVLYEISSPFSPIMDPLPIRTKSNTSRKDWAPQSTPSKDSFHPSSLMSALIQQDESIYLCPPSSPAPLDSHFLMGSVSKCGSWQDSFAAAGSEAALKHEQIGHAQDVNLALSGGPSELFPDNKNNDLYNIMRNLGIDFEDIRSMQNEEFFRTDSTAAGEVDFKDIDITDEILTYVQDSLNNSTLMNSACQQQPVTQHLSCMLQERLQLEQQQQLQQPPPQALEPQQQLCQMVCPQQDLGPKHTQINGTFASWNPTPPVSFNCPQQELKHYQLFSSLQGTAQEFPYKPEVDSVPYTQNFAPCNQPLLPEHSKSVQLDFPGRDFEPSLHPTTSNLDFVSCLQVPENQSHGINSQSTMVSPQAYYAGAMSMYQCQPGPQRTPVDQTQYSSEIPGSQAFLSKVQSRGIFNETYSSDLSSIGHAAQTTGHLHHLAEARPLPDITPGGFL
Description: The 100 “hit compounds” from the primary screen were subsequently screened for their capacity to activate the low-affinity murine AHR^d receptor isoform using the activity of the endogenous Cyp1a1 gene as a readout. To this end, we established a hepatoma cell line that expresses the AHR^d receptor isoform derived from the DBA/2J mouse. An AHR^d-expressing cell line was generated by stably transfecting the AHR^d cDNA into the rat hepatoma AHR-deficient cell line, BP8 [15]. After stable selection with G418, a subclone (AHR^d-15) was analyzed for receptor expression and function. […] To confirm that the AHR^d-15 clone expressed a functional low affinity AHR^d isoform, we examined the receptor-mediated response to the prototype agonists, TCDD and β-naphthoflavone (BNF).
To test the ability of the 100 AHR inducers to activate the AHR^d-15 cells, they were treated with each of the compounds at the dose of 1 µM, for 36 hours in 96-well plates.
(§1) Figure 3 In Vitro dose response curves. A. Rat hepatoma cell lines bearing the murine AHR^d (AHR^d-15) or the rat AHR^b (5L) were incubated with increasing doses of TCDD in 96-well plates. After 40 hours, EROD activity was performed from whole cell lysate. (n = 3). […] (n = 3). C. Same assay as in A, with increasing doses of BNF. (n = 2). […] Following 48 hours, hepatic microsomal proteins were isolated and used for the assessment of EROD activity. Animals were treated in groups of 4. Error bars: S.D.
The open reading frame of the AHR^d gene (PL2047) was amplified by PCR using oligos OL5127 (5′-[…]-3′) and OL5128 (5′-[…]-3′). The product was ligated into the pTARGET™ mammalian expression vector (Promega, Madison, WI). The resulting plasmid was transfected into the AHR-deficient cell line, BP8 [15], using Effectene transfection reagent (Qiagen Inc., Valencia, CA). Stable integrants were selected with 6 mg/ml of G418 for 2 weeks, beginning at 48-hours post-transfection. Clones derived from single cells were screened for their response to nanomolar doses of dioxin or micromolar doses of BNF, as measured by ethoxyresorufin O-deethylase (EROD) activity. […] The validated cell line used in these studies was designated line AHR^d-15.
(§2) High-throughput analysis of EROD activity was assayed by adapting a protocol that was described elsewhere, [63]. Briefly, cells were seeded into 96-well plates at ∼ 60% density and treated with the test compounds for 36 hours. The cells were washed with PBS and lysed with 30 µL water and a cycle of freeze-thaw. To each well, 150 µL of 50 mM Hepes buffer containing 26.7 µM dicumarol and 13.3 µM ethoxyresorufin were added. The samples were incubated at 30°C for 20 minutes, and 50 µL of 0.5 mM β-NADPH were added to initiate the reaction. Fluorescence of the resorufin product was detected using the 544 nm excitation and 590 nm emission wavelength filter set.

rat AHR^b (5L) = target: T2, rat AHR^b (5L) (Rattus norvegicus, UniProt P41738); test: EROD activity in rat hepatoma 5L cells; assay type: cell-based; settings: 5L cell line, 40 hours
T2 construct: endogenous in cells; host or cells: rat hepatoma 5L cells
T2 sequence (P41738 10-853): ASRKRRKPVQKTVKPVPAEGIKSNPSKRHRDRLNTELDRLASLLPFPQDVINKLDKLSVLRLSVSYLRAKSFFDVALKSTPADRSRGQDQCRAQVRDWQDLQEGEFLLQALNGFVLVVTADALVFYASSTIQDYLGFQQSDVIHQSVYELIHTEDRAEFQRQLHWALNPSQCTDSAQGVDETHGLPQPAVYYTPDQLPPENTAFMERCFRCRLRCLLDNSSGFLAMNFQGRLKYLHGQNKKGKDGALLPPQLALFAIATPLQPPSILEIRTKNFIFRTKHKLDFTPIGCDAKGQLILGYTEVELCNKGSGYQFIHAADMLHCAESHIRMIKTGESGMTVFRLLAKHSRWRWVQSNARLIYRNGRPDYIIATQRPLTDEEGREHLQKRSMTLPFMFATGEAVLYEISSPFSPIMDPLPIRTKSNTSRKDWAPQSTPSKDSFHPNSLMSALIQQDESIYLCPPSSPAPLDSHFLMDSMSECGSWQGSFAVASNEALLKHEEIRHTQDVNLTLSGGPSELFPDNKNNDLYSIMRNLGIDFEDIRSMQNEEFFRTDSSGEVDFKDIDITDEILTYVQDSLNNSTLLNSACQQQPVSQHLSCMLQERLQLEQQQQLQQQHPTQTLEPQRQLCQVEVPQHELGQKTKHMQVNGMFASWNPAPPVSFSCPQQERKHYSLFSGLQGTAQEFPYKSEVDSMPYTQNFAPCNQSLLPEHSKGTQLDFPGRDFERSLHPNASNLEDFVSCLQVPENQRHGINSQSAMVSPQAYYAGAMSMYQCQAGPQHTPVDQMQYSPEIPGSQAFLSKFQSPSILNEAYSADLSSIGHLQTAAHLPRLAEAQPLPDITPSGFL
Description: (§3) We utilized the wild type rat hepatoma cell line, 5L, which harbors the high affinity AHR isoform, and our newly created AHR^d-15 cell line. […] Groups of control mice were given corn oil alone or BNF at the concentration of 120 mg/kg.
as §1, §2

DBA/2J mice (AHR^d) = test: In vivo hepatic microsomal EROD activity, DBA/2J; set-up: species or system mouse; settings: oral 120 mg/kg, 48 hours
Description: as §3, §1
Hepatic microsomes were prepared by homogenizing 0.5 g of liver tissue in 5 mL of MENG buffer (25 mM buffer sodium morpholinopropane sulfonate buffer (pH 7.5) containing 0.025% (w/v) NaN3, 1 mM EGTA and 10% (v/v) glycerol). The homogenate was subjected to centrifugation at 10,000×g for 20 minutes, followed by centrifugation of the supernatant for 1 hour at 100,000×g and 4°C. The pellet was dissolved in 15 mM Tris-HCl buffer containing 250 mM sucrose (pH 8.0) and aliquots were stored at −80°C. Protein concentration was determined using the Bicinchoninic Acid Protein Assay Reagent (Pierce Biotechnology, Rockford, IL). […]

[2] = test system: AHR (101L-hepatoma cells); test: Antagonism of DRE-luciferase activation by CH223191; assay type: cell-based, human

AHR^b isoform (C57BL/6J hepatic cytosol), sequence (P30561 10-805): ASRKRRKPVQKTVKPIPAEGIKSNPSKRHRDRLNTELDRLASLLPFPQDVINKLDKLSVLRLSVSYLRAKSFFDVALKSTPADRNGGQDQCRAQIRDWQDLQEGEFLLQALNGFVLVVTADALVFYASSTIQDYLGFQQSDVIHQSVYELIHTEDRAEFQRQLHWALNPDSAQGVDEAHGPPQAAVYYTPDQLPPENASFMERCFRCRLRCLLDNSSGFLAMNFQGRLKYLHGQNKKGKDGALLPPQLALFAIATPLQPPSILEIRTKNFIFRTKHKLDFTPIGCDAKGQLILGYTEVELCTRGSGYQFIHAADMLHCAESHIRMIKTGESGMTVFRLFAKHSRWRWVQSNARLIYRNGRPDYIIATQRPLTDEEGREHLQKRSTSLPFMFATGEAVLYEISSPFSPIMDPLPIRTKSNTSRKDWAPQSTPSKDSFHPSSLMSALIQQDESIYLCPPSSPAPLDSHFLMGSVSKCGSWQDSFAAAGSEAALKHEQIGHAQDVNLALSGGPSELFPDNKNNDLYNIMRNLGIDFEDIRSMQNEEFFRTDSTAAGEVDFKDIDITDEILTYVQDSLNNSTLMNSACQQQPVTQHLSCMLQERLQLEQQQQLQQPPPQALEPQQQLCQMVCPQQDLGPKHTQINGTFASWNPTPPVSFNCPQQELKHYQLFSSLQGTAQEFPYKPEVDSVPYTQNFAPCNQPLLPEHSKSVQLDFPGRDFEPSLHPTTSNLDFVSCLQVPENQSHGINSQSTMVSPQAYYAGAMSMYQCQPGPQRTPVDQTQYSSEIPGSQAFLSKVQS

With c1ccc2cc3c(ccc4ccccc43)cc2c1 [1,2-Benzanthracene] as the compound, how does the IC50 [1] read?
The IC50 was 13.7 nM.

Which EROD response (murine AHR^d; AHR^d-15 cell line, 40 hours) does the source give for O=c1cc(-c2ccccc2)oc2ccc3ccccc3c12 [BNF, β-naphthoflavone] here?
Its EROD response is “no response”.

And the “AHR-mediated response (EROD activity)” value (murine AHR^d; AHR^d-15 cells, doses as high as 10 µM, 36 hours)?
The value was “inactive”.

What about the EROD response (rat AHR^b (5L)) of the same compound?
The EROD response was “strong response”.

What about the “hepatic EROD activity” value (DBA/2J mice (AHR^d)) of the same compound?
The value was “dramatically decreased in vivo activity”.

Which “inhibition of SU5416-induced DRE activation” value ([2]; antagonist 10 µM, titration of SU5416, 4 hours) does the source give for Cc1ccccc1N=Nc1ccc(NC(=O)c2ccnn2C)c(C)c1 [CH223191] here?
Its value is “only a small amount of inhibition”.

What about the “inhibition of TCDD-induced DRE activation” value ([2]; titration of antagonist with 1 nM TCDD, 4 hours) of the same compound?
Its value is “inhibited”.

And the “inhibition of SU5416-induced DRE activation” value ([2]; titration of antagonist with 100 nM SU5416, 4 hours)?
The value was “minimal inhibition”.

Source: paper PMC3435281 (PLoS ONE, 2012)
